Read-outs that look alike come from different tables or passages of the source.
Columns and labels:
[1] = biological target: biotinylated human IL-17A / AF647-labeled human IL-17RA (Homo sapiens, UniProt Q16552); assay: Human IL-17A×IL-17RA TR-FRET assay; type: binding; settings: biotinylated human IL-17A 5 nM, AF647-labeled human IL-17RA 30 nM
Summary of the method: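 Compounds tested in duplicate at each concentration; neutral controls contain all components with DMSO in place of compound.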

[2] = biological target: recombinant human IL-17AA (Homo sapiens, UniProt Q16552); assay: IL-6 release from NHDF cells, IL-17AA plus TNF-α stimulation; type: cell-based; settings: IL-17AA 30 pM plus TNF-α 6 pM, 24 hours, IL-6 by ELISA
Summary of the method: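 ELISA measured IL-6 in supernatants after 24 h at 37° C of NHDF cells with a compound/cytokine cocktail, pre-mixed 30 min at room temperature. Duplicates; 0.1% DMSO or 20% plasma final. IC50 from IL-6 remaining after subtracting the TNF-α-alone signal.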

[3] = TR-FRET, read-out: IL17AA FRET/ IL17Rawt IC50
[4] = NHDF cells, read-out: IL17AA + TNF IC50 IL-6
[5] = IL17AA FRET/ IL17Rawt IC50, TR-FRET
[6] = IL17AA + TNF IC50 IL-6, NHDF cells

Sequence of recombinant human IL-17AA (Q16552 24-155): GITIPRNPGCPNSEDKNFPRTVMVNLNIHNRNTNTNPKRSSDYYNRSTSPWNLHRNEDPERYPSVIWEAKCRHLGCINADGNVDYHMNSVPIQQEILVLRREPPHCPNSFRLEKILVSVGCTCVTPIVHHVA
Sequence of biotinylated human IL-17A / AF647-labeled human IL-17RA (Q16552 24-155): as above

| IC50 [1, 3] [nM] | IC50 [2, 4] [nM] | Compound | IC50 [1, 5] [nM] | IC50 [2, 6] [nM] |
| --- | --- | --- | --- | --- |
| 436 | 151 | Cc1c(-c2ccc(NC(=O)[C@@H](NC(=O)c3ccnn3CCN(C)C)C3CCCCC3)cc2F)c(Cl)cc[n+]1[O-] [Example 77, 4-chloro-3-(4-((S)-2-cyclohexyl-2-(1-(2-(dimethylamino)ethyl)-1H-pyrazole-5-carboxamido)acetamido)-2-fluorophenyl)-2-methylpyridine 1-oxide] | – | – |
| 85 | 35 | Cc1c(-c2ccc(NC(=O)[C@@H](NC(=O)c3ccnn3C(C)C)C3CCCCC3)cc2F)ccc[n+]1[O-] [Example 82, (S)-3-(4-(2-cyclohexyl-2-(1-isopropyl-1H-pyrazole-5-carboxamido)acetamido)-2-fluorophenyl)-2-methylpyridine 1-oxide] | – | – |
| 489 | 504 | Cc1cc[n+]([O-])c(C)c1-c1ccc(NC(=O)[C@@H](NC(=O)c2ccnn2C)C2CCC(F)(F)C2)cc1 (stereo partly drawn) [Example 87, 3-(4-((2S)-2-(3,3-difluorocyclopentyl)-2-(1-methyl-1H-pyrazole-5-carboxamido)acetamido)phenyl)-2,4-dimethylpyridine 1-oxide] | – | – |
| 286 | 83 | Cc1cc[n+]([O-])c(Cl)c1-c1ccc(NC(=O)[C@@H](NC(=O)c2ccnn2C)C2CCCCC2)cc1 [Example 89, (S)-2-chloro-3-(4-(2-cyclohexyl-2-(1-methyl-1H-pyrazole-5-carboxamido)acetamido)phenyl)-4-methylpyridine 1-oxide] | – | – |
| 65 | 5 | COCc1nocc1C(=O)N[C@H](C(=O)Nc1ccc(-c2c(Cl)cc[n+]([O-])c2C)c(F)c1)C1CCCCC1 [Example 90, 4-chloro-3-(4-((S)-2-cyclohexyl-2-(3-(methoxymethyl)isoxazole-4-carboxamido)acetamido)-2-fluorophenyl)-2-methylpyridine 1-oxide] | – | – |
| 372 | 28 | Cc1c(-c2ccc(NC(=O)[C@@H](NC(=O)c3ccnn3C)C3CCCCC3)cc2F)cc(Cl)c[n+]1[O-] [Example 92, (S)-5-chloro-3-(4-(2-cyclohexyl-2-(1-methyl-1H-pyrazole-5-carboxamido)acetamido)-2-fluorophenyl)-2-methylpyridine 1-oxide] | – | – |
| 601 | 58 | Cn1nccc1C(=O)N[C@H](C(=O)Nc1ccc(-c2c[n+]([O-])ccc2Cl)c(F)c1)C1CCCCC1 [Example 93, (S)-4-chloro-3-(4-(2-cyclohexyl-2-(1-methyl-1H-pyrazole-5-carboxamido)acetamido)-2-fluorophenyl)pyridine 1-oxide] | – | – |
| 125 | 19 | Cc1cc[n+]([O-])c(C)c1-c1ccc(NC(=O)[C@@H](NC(=O)c2ccnn2C)C2CCCCC2)cc1F [Example 95, 3-(4-((S)-2-cyclohexyl-2-(1-methyl-1H-pyrazole-5-carboxamido)acetamido)-2-fluorophenyl)-2,4-dimethylpyridine 1-oxide] | – | – |
| 70 | 7 | Cc1cc[n+]([O-])c(C)c1-c1ccc(NC(=O)[C@@H](NC(=O)c2ccnn2C(C)C)C2CCCCC2)cc1F [Example 96, 3-(4-((S)-2-cyclohexyl-2-(1-isopropyl-1H-pyrazole-5-carboxamido)acetamido)-2-fluorophenyl)-2,4-dimethylpyridine 1-oxide] | – | – |
| 50 | 18 | Cc1nocc1C(=O)N[C@H](C(=O)Nc1ccc(-c2c(Cl)cc[n+]([O-])c2C)c(F)c1)C1CCC(F)(F)CC1 [Example 106, 4-chloro-3-(4-((S)-2-(4,4-difluorocyclohexyl)-2-(3-methylisoxazole-4-carboxamido)acetamido)-2-fluorophenyl)-2-methylpyridine 1-oxide] | – | – |
| 19 | 15 | Cc1c(-c2ccc(NC(=O)[C@@H](NC(=O)c3ccnn3C)C3CCC(F)(F)CC3)cc2F)c(Cl)cc[n+]1[O-] [Example 107, 4-chloro-3-(4-((S)-2-(4,4-difluorocyclohexyl)-2-(1-methyl-1H-pyrazole-5-carboxamido)acetamido)-2-fluorophenyl)-2-methylpyridine 1-oxide] | – | – |
| 164 | 84 | Cc1cc[n+]([O-])c(C)c1-c1ccc(NC(=O)[C@@H](NC(=O)c2ccnn2C)C2CCC(F)(F)CC2)cc1F [Example 109, 3-(4-((S)-2-(4,4-difluorocyclohexyl)-2-(1-methyl-1H-pyrazole-5-carboxamido)acetamido)-2-fluorophenyl)-2,4-dimethylpyridine 1-oxide] | – | – |

The next lines start with the compound.

| Compound | IC50 [1, 3] [nM] | IC50 [2, 4] [nM] | IC50 [1, 5] [nM] | IC50 [2, 6] [nM] |
| --- | --- | --- | --- | --- |
| Cc1cc[n+]([O-])c(C)c1-c1ccc(NC(=O)C(NC(=O)c2ccnn2C)C2CCC(C)CC2)cc1F [Example 84, 3-(2-fluoro-4-((S)-2-(1-methyl-1H-pyrazole-5-carboxamido)-2-((1r,4S)-4-methylcyclohexyl)acetamido)phenyl)-2,4-dimethylpyridine 1-oxide] | – | – | 14 | 8 |
| Cc1cc[n+]([O-])c(C)c1-c1ccc(NC(=O)C(NC(=O)c2ccnn2C)C2CCC(C(F)(F)F)CC2)cc1F [Example 91, 3-(2-fluoro-4-((S)-2-(1-methyl-1H-pyrazole-5-carboxamido)-2-((1r,4S)-4-(trifluoromethyl)cyclohexyl)acetamido)phenyl)-2,4-dimethylpyridine 1-oxide] | – | – | 134 | 39 |
| Cc1cc[n+]([O-])c(C)c1-c1ccc(NC(=O)[C@@H](NC(=O)c2ccnn2C2CC2)C2CCCCC2)cc1 [Example 94, (S)-3-(4-(2-cyclohexyl-2-(1-cyclopropyl-1H-pyrazole-5-carboxamido)acetamido)phenyl)-2,4-dimethylpyridine 1-oxide] | 128 | 47 | – | – |
| Cc1c[n+]([O-])cc(C)c1-c1ccc(NC(=O)[C@@H](NC(=O)c2ccnn2C)C2CCCCCC2)cc1 [Example 99, (S)-4-(4-(2-cycloheptyl-2-(1-methyl-1H-pyrazole-5-carboxamido)acetamido)phenyl)-3,5-dimethylpyridine 1-oxide] | 208 | 81 | – | – |
| Cc1c[n+]([O-])cc(C)c1-c1ccc(NC(=O)[C@@H](NC(=O)c2ccnn2C2CC2)C2CCCCCC2)cc1 [Example 100, (S)-4-(4-(2-cycloheptyl-2-(1-cyclopropyl-1H-pyrazole-5-carboxamido)acetamido)phenyl)-3,5-dimethylpyridine 1-oxide] | 243 | 46 | – | – |
| Cc1c[n+]([O-])cc(C)c1-c1ccc(NC(=O)[C@@H](NC(=O)c2ccnn2C(C)C)C2CCCCCC2)cc1 [Example 101, (S)-4-(4-(2-cycloheptyl-2-(1-isopropyl-1H-pyrazole-5-carboxamido)acetamido)phenyl)-3,5-dimethylpyridine 1-oxide] | 85 | 22 | – | – |
| Cc1c[n+]([O-])cc(C)c1-c1ccc(NC(=O)[C@@H](NC(=O)c2ccnn2C2CCC2)C2CCCCCC2)cc1 [Example 102, (S)-4-(4-(2-(1-cyclobutyl-1H-pyrazole-5-carboxamido)-2-cycloheptylacetamido)phenyl)-3,5-dimethylpyridine 1-oxide] | 123 | 17 | – | – |
| Cc1c[n+]([O-])cc(C)c1-c1ccc(NC(=O)[C@@H](NC(=O)c2ccnn2C)[C@H]2CCc3ccccc3C2)cc1 [Example 103, 3,5-dimethyl-4-(4-((S)-2-(1-methyl-1H-pyrazole-5-carboxamido)-2-((S)-1,2,3,4-tetrahydronaphthalen-2-yl)acetamido)phenyl)pyridine 1-oxide] | 72 | 45 | – | – |
| Cc1cc[n+]([O-])c(C(F)F)c1-c1ccc(NC(=O)[C@@H](NC(=O)c2ccnn2C)C2CCCCC2)cc1 [Example 104, (S)-3-(4-(2-cyclohexyl-2-(1-methyl-1H-pyrazole-5-carboxamido)acetamido)phenyl)-2-(difluoromethyl)-4-methylpyridine 1-oxide] | 1600 | 139 | – | – |
| CCn1nccc1C(=O)NC(C(=O)Nc1ccc(-c2c(Cl)cc[n+]([O-])c2C)c(F)c1)C1CCC(F)(F)CC1 (centres unmarked) [Example 108, 4-chloro-3-(4-(2-(4,4-difluorocyclohexyl)-2-(1-ethyl-1H-pyrazole-5-carboxamido)acetamido)-2-fluorophenyl)-2-methylpyridine 1-oxide] | – | – | 30 | 7 |
| Cn1nccc1C(=O)N[C@H](C(=O)Nc1ccc(-c2c[n+]([O-])ccc2Cl)cc1)C1CCCCC1 [Example 112, (S)-4-chloro-3-(4-(2-cyclohexyl-2-(1-methyl-1H-pyrazole-5-carboxamido)acetamido)phenyl)pyridine 1-oxide] | 1040 | 162 | – | – |
| Cc1cc(-c2ccc(NC(=O)[C@@H](NC(=O)c3ccnn3C)C3CCCCC3)cc2)c(C)[n+]([O-])c1 [Example 113, (S)-3-(4-(2-cyclohexyl-2-(1-methyl-1H-pyrazole-5-carboxamido)acetamido)phenyl)-2,5-dimethylpyridine 1-oxide] | 339 | 38 | – | – |
| Cc1c(-c2ccc(NC(=O)[C@@H](NC(=O)c3ccnn3C)C3CCCCC3)cc2)cc(CO)c[n+]1[O-] [Example 115, (S)-3-(4-(2-cyclohexyl-2-(1-methyl-1H-pyrazole-5-carboxamido)acetamido)phenyl)-5-(hydroxymethyl)-2-methylpyridine 1-oxide] | 1380 | 201 | – | – |
